# Reference: patent US20140329766A1, “Prophylactic Compositions for Management of Microbial Infections in Patients with Brain Injury” (UTI LIMITED PARTNERSHIP, priority 2011, published 2014)
# B1: recombinant IL-10: Recombinant IL-10 (Cedarlane), a TH2-type cytokine (protein, UniProt P18893 19-178, looked up)
# Interleukin-10: SRGQYSREDNNCTHFPVGQSHMLLELRTAFSQVKTFFQTKDQLDNILLTDSLMQDFKGYLGCQALSEMIQFYLVEVMPQAEKHGPEIKEHLNSLGEKLKTLRMRLRRCHRFLPCENKSKAVEQVKSDFNKLQDQGVYKAMNEFDIFINCIEAYMMIKMKS
# Columns and labels:
# hepatic iNKT cells = experiment: Spinning disk confocal intravital microscopy of the liver: crawling behaviour of GFP+ (iNKT) cells; format: in vivo, mice; settings: post-ischemic Cxcr6gfp/+ mice 24 h after MCAO; for iNKT cell phenotype (cessation of crawling) induced by MCAO: propranolol 30 mg/kg at 4 and 8 h after MCAO, 6-OHDA 250 mg/kg i.p. 3 days prior (FIGS. 32-34)
# Method: Murine liver intravital microscopy was performed as taught by Wong et al. (1997, A minimal role for selectins in the recruitment of leukocytes into the inflamed liver microvasculature. J. Clin. Invest. 99: 2782). Briefly, the tail vein of the anesthetized mice was cannulated to administer fluorescently labeled antibodies and/or additional anesthetic as required. Body temperature was maintained at 37° C. using an infrared heat lamp. Mice were placed in a right lateral position on an adjustable microscope stage. A lateral abdominal incision along the costal margin to the midaxillary line was made to exteriorize the liver, and all exposed tissues were moistened with saline-soaked gauze to prevent dehydration.
# Cells were tracked using ImageJ software version 1.45 (NIH at http://rsb.info.nih.gov/ij/). Time-lapse videos exported from Volocity were imported as .mov file, and then converted to 8-bit grayscale. Fluorescent cells were adjusted using threshold control, and noise particles less than 2.0 pixels were removed by filter. Movement of cells was measured using manual tracking, and was calculated for each track using ImageJ output spreadsheets. The cell velocity was expressed in distance (μm) per time (min). 30-40 tracks from 10 mins videos of each animal in each experimental group were analyzed.
# Excised livers were prepared for in vivo microscopic observation. Briefly, the liver was placed on the pedestal of an inverted microscope and the liver surface was then covered with a small piece of saline-soaked KimWipe to hold the organ in position. The liver microvasculature was visualized using a spinning-disk confocal microscopy and images were acquired with an Olympus IX81 inverted microscope using a ×10/0.40 UplanFL N objective. The microscope was equipped with a confocal light path (WaveFx, Quorum, Guelph, ON, CA) based on a modified Yokogawa CSU-10 head (Yokogawa Electric Corporation, Tokyo, Japan). Cxcr6^gfp/+ mice were used to visualize hepatic iNKT cells. Laser excitation wavelengths (Cobolt, Stockholm, Sweden) were used in rapid succession and visualized with the appropriate long-pass filters (Semrock, Rochester, N.Y.). Typical exposure time for each excitation wavelength was 300 milli-seconds. A 512×512 pixel back-thinned electron-multiplying charge-coupled device camera (C9100-13, Hamamatsu, Bridgewater, N.J.) was used for fluorescence detection. Volocity Acquisition software (Improvision) was used to drive the confocal microscope. […] Behaviors of iNKT cells in the hepatic microvasculature were assessed.
# Wildtype mice underwent the MCAO procedure as previously described in Example 1. […] The crawling behaviours of crawling GFP+ cells in livers from sham-operated control mice and post-ischemic mice were observed and quantified using the methods disclosed in Example 2.
# post-stroke infections = experiment: Bacteriological analysis (CFU) of blood, lungs, liver and spleen after MCAO; format: in vivo, mice; settings: for bacterial infections at 24 h after MCAO: wild-type mice receiving propranolol or 6-OHDA (FIGS. 44A-44D)
# Method: Mice underwent the mid-cerebral artery occlusion (MCAO) model of cerebral ischemia-reperfusion injury as previously described (Connolly, Jr. et al., 1996; Wong et al., 2008). Male mice of 8-12 weeks old were anesthetized by intraperitoneal injection of a mixture of 10 mg/kg xylazine hydrochloride (MTC Pharmaceuticals, Cambridge, ON) and 200 mg/kg ketamine hydrochloride (Rogar/STB, London, ON). Body temperature was maintained at 37° C. using a heating pad and temperature regulator with rectal probe. Mice were randomly divided into 2 groups: (i) sham-operated, and (ii) MCAO-operated. All surgical instruments were sterilized before the surgery. Before any incision, the area was swabbed with ethanol. To induce MCAO, a 10-mm incision was made on the right-hand side of the neck. Then, the common carotid artery, external carotid artery, and internal carotid artery were dissected free. The external carotid artery was further dissected distally, then coagulated and cut to serve as a stump. After applying temporary clamps at the common carotid artery and internal carotid artery, a monofilament with a silicon coating diameter of 0.21-0.23 mm (Doccol Corporation, Redlands, Calif., USA) was inserted into the stump of the external carotid artery. The monofilament then advanced a defined distance (12 mm) so that the distal end of the monofilament came to rest across the origin of the MCA. The stump of external carotid artery was tied off. The wound on the neck of the mouse was sutured and the mouse was then transferred onto a heat pad to maintain its body temperature at 37° C. After 30 mins of occlusion, the monofilament was withdrawn to allow reperfusion to occur. The animal then recovered from the anaesthesia. Rehydration of the mice was performed every 4 h with a subcutaneous injection of electrolytes and glucose. Food pellets softened with water were placed in the cage after surgery as the mice recovered, and access to water was provided. Sham-operated animals were subjected to the initial anaesthetic and neck incision only. The animals were then allowed to recover from anaesthetic. All animals were put onto a 37° C. heat pad, post-surgery, to recover from anaesthesia until euthanized.
# (§1) The anaesthetized mice from Example 1 were washed with 70% ethanol under sterile conditions. Blood was collected by cardiac puncture. The lungs, liver and spleen were removed after thoracotomy and homogenized. For determination of colony forming units (CFU), 10 μl of tissue homogenate or blood was serially diluted, plated onto brain heart infusion (BHI) agar plates supplemented with 5% sheep blood (Daylnn Biologicals, Alberta, Canada), incubated at 37° C. for 18 h, and bacterial colonies were counted.
# as §1, with “Example 7” for “Example 1”
# iNKT cells [1] = experiment: In vitro noradrenalin activation of isolated iNKT cells; format: cell-based, mice
# Method: After gentle agitation at 37° C. for 30 min, the concentrate was passed through a 40-μm nylon filter and washed twice with ice-cold PBS (pH 7.4) and centrifuged at 400×g for 10 min. Lymphocytes were purified on a 44%/70% Percoll gradient and were negatively selected with anti-Gr-1 (RB6-8C5; eBioscience), anti-F4/80 (BM8; eBioscience), anti-CD19 (1D3; eBioscience), and anti-CD8a (53-6.7; eBioscience) microbeads and MiniMACS column (Miltenyi Biotech) to remove neutrophils, macrophages, B cells, and CD8+ cells, respectively. A pure iNKT cell population consisting of TCRf3+ and GFP+ cells were sorted. Purity of isolated iNKT cells was >95%. iNKT cells were seeded at 5×10^5 cells into plasma-coated 6 cm clear flat glass bottom dishes and allowed to settle in DMEM containing 10% FCS for 1 h. To examine noradrenalin activation of iNKT cells in vitro, iNKT cells were either pretreated with 400 μM propranolol and then treated with 200 μM noradrenalin or the iNKT cells were subjected to 200 μM noradrenalin alone. The behavior of iNKT cells was visualized and recorded with FluoView FV1000 confocal fluorescence microscope (Olympus). The recorded images were randomized and analyzed by three blinded investigators.
# [2] = Brain infarct size after MCAO; format: in vivo, mice; settings: systemic propranolol or 6-OHDA (FIG. 36)
# [3] = test system: intracellular IFNγ and IL-10 production; experiment: Intracellular cytokine analysis by flow cytometry; format: in vivo; settings: post-ischemic wild-type mice treated with propranolol (FIG. 48)
# Method: For intracellular cytokine analysis, liver single cell suspensions from sham-operated and post-ischemic Cxcr6^gfp/+ mice were stained with PerCP-conjugated anti-CD69, washed with cold FWB, resuspended in Cytofix/Cytoperm (BD Bioscience) for 30 min on ice. Samples were washed in Perm/Wash (BD Bioscience) and then stained with Alexa Fluor 450-conjugated anti-IFNγ (XMG1.2, eBioscience) and PE-conjugated anti-IL-4 (11B11, BD Pharmingen) or PE-conjugated anti-IL-10 (JESS-16E3, eBioscience).
# [4] = format: in vivo; settings: post-ischemic Cxcr6gfp/+ mice (FIG. 37)
# Method: Body temperature was maintained at 37° C. using a heating pad and temperature regulator with rectal probe. Mice were randomly divided into 2 groups: (i) sham-operated, and (ii) MCAO-operated. All surgical instruments were sterilized before the surgery. Before any incision, the area was swabbed with ethanol. To induce MCAO, a 10-mm incision was made on the right-hand side of the neck. Then, the common carotid artery, external carotid artery, and internal carotid artery were dissected free. The external carotid artery was further dissected distally, then coagulated and cut to serve as a stump. After applying temporary clamps at the common carotid artery and internal carotid artery, a monofilament with a silicon coating diameter of 0.21-0.23 mm (Doccol Corporation, Redlands, Calif., USA) was inserted into the stump of the external carotid artery. The monofilament then advanced a defined distance (12 mm) so that the distal end of the monofilament came to rest across the origin of the MCA. The stump of external carotid artery was tied off. The wound on the neck of the mouse was sutured and the mouse was then transferred onto a heat pad to maintain its body temperature at 37° C. After 30 mins of occlusion, the monofilament was withdrawn to allow reperfusion to occur. The animal then recovered from the anaesthesia. […]
# iNKT cells [5] = experiment: Localized noradrenalin superfusion on the liver of Cxcr6gfp/+ mice; format: in vivo
# Method: Alexa Fluor 647-conjugated rat anti-mouse PECAM-1 (clone 390; 1 μl) purchased from eBioscience (San Diego, Calif., USA) was mixed with the noradrenalin (5 μg; Sigma) to enable visualization of the epicentre of noradrenalin superfusion. Using intravital spinning-disk confocal microscopy, the behavior of iNKT cells was visualized and tracked in the epicentre of, and distant from the localized noradrenalin in the livers of Cxcr6^gfp/+ mice.
# [6] = 5 μg, liver of Cxcr6gfp/+ mice (FIGS. 38-40)
molecule,measurement,setting,value
apyrase,iNKT cell arrest in response to MCAO,"hepatic iNKT cells; treatment just prior to MCAO (FIGS. 29, 30)",no effect
CC(C)NCC(O)COc1cccc2ccccc12 (stereo not shown) [propranolol],protection from infection (bacterial loads in peripheral blood and lungs),post-stroke infections; post-ischemic Cd1d-/- mice (FIG. 46),no protection
same,bacterial infections at 24 h after MCAO,post-stroke infections,significantly reduced
same,noradrenaline-induced behavioral change of iNKT cells in vitro,"iNKT cells [1]; pretreatment 400 μM propranolol, then 200 μM noradrenalin (FIG. 42)",inhibited
same,infarct size in post-ischemic mice,[2],did not alter
same,iNKT cell phenotype (cessation of crawling) induced by MCAO,hepatic iNKT cells,reversed
same,intracellular IL-10 versus IFN-γ production,[3],reversed the preference for intracellular IL-10 production back to an intracellular IFN-γ dominant production
"NCCc1cc(O)c(O)cc1O [Formula 6-OHDA, 6-hydroxydopamine]",bacterial infections at 24 h after MCAO,post-stroke infections,significantly reduced
same,infarct size in post-ischemic mice,[2],did not alter
same,iNKT cell phenotype (cessation of crawling) induced by MCAO,hepatic iNKT cells,completely inhibited
same,Mortality at 24 h of reperfusion,[4],50%
NC[C@H](O)c1ccc(O)c(O)c1 [noradrenaline],iNKT cell morphology in vitro,iNKT cells [1]; 200 μM noradrenalin alone (FIG. 41),developed a pseudopod-protruding phenotype
same,crawling behavior of iNKT cells in an area of liver distant from the superfusion,iNKT cells [5]; 5 μg (FIGS. 38-40),did not alter
same,crawling iNKT cells in the epicenter of noradrenaline administration,iNKT cells [5]; [6],Significantly fewer iNKT cells crawled
same,pirouetting iNKT cells in the epicenter of noradrenaline administration,iNKT cells [5]; [6],more cells adopted a pirouetting phenotype
B1,stroke-induced lung infections (bacterial load in the lungs),"post-stroke infections; wild-type mice pretreated i.v. 1 h prior to MCAO, 1 μg/mouse (FIG. 22)",increased
